Source: the supplement of paper PMC10307832

Columns and labels:
Experiment in all cases: relative viability (nuclei count vs DMSO), 5 days (fraction); higher = more cells survive
[1] = compound: CC(O)(CS(=O)(=O)c1ccc(F)cc1)C(=O)Nc1ccc(C#N)c(C(F)(F)F)c1 [Bicalutamide] + Cc1nc(NC(=O)N2CCC[C@H]2C(N)=O)sc1-c1ccnc(C(C)(C)C(F)(F)F)c1 [Alpelisib] (partner 2 µM)
Summary of the method: (§1)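 Values are medians from duplicate plates. Each reflects relative viability, defined as the nuclei count of treated wells over that of vehicle wells. Lung cancer cell lines in 1536-well plates were pin-tool dosed one day after seeding with one drug alone or with a fixed anchor-drug dose plus five library-drug doses (not always all listed) in √10 steps, then fixed, stained and imaged at 4× after 5 days.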

[2] = compound: C(C(=O)C(=O)O)Br [Bromopyruvate] + O=C(CCCCCCC(=O)Nc1ccccc1)NO [Vorinostat] (partner 1 µM)
Summary of the method: as §1

[3] = compound: C(C(=O)C(=O)O)Br [Bromopyruvate] + N=C(N)NC(=N)NCCc1ccccc1 [Phenformin] (partner 250 µM)
Summary of the method: as §1

[4] = compound: C(C(=O)C(=O)O)Br [Bromopyruvate] + C[C@]1(O)C[C@@H](c2nc(-c3ccc4ccc(-c5ccccc5)nc4c3)c3c(N)nccn32)C1 [Linsitinib] (partner 1 µM)
Summary of the method: as §1

UMC-11
relative viability ([1]; first compound 0.08 µM): 1.05 | relative viability ([1]; first compound 0.253 µM): 0.9 | relative viability ([1]; first compound 0.8 µM): 1.12 | relative viability ([1]; first compound 2.53 µM): 0.976 | relative viability ([2]; first compound 1 µM): 0.479 | relative viability ([2]; first compound 3.162 µM): 0.357 | relative viability ([2]; first compound 10 µM): 0.289 | relative viability ([2]; first compound 31.62 µM): 0.274 | relative viability ([2]; first compound 100 µM): 0.2 | relative viability ([3]; first compound 1 µM): 0.343 | relative viability ([3]; first compound 3.162 µM): 0.328 | relative viability ([3]; first compound 10 µM): 0.314 | relative viability ([3]; first compound 31.62 µM): 0.329 | relative viability ([3]; first compound 100 µM): 0.292 | relative viability ([4]; first compound 1 µM): 1.03 | relative viability ([4]; first compound 3.162 µM): 1.08 | relative viability ([4]; first compound 10 µM): 0.884 | relative viability ([4]; first compound 31.62 µM): 0.987 | relative viability ([4]; first compound 100 µM): 1.03
